Structures can show the parent of a compound that is named as a salt. Where two headings read alike, the source gives them in different places.
What was measured:
Assay in all cases: AK assay 384-well format, Prestwick library screening
E. faecium = assay type: cell-based, Enterococcus faecium; settings: 50 μM final drug concentration; for fold induction at 50 µM: Enterococcus faecium, 3 h
[1] = test system: S. aureus strain USA300-0114; assay type: cell-based, Staphylococcus aureus; settings: 50 μM final drug concentration; for fold induction at 50 µM: Staphylococcus aureus, USA300, 3 h
K. pneumoniae = assay type: cell-based, Klebsiella pneumoniae; settings: 50 μM final drug concentration; for fold induction at 50 µM: Klebsiella pneumoniae, 3 h
[2] = test system: A. baumannii strain 98-37-09; assay type: cell-based, Acinetobacter baumannii; settings: 50 μM final drug concentration; for fold induction at 50 µM: Acinetobacter baumannii, 983709, 3 h
P. aeruginosa = assay type: cell-based, Pseudomonas aeruginosa; settings: 50 μM final drug concentration; for fold induction at 50 µM: Pseudomonas aeruginosa, 3 h
E. cloacae = assay type: cell-based, Enterobacter cloacae; settings: 50 μM final drug concentration; for fold induction at 50 µM: Enterobacter cloacae, 3 h
E. coli = assay type: cell-based, Escherichia coli; settings: for fold induction at 50 µM: Escherichia coli, 3 h
[3] = cutoff for positive-scoring molecules 3-fold increase, read-out: AK-based Prestwick Library Screening Results, E. faecium (fold increase in extracellular AK activity)
[4] = cutoff for positive-scoring molecules 3-fold increase, read-out: AK-based Prestwick Library Screening Results, S. aureus (fold increase in extracellular AK activity)
[5] = cutoff for positive-scoring molecules 3-fold increase, read-out: AK-based Prestwick Library Screening Results, K. pneumoniae (fold increase in extracellular AK activity)
[6] = cutoff for positive-scoring molecules 3-fold increase, read-out: AK-based Prestwick Library Screening Results, A. baumannii (fold increase in extracellular AK activity)
[7] = cutoff for positive-scoring molecules 3-fold increase, read-out: AK-based Prestwick Library Screening Results, P. aeruginosa (fold increase in extracellular AK activity)
[8] = cutoff for positive-scoring molecules 3-fold increase, read-out: AK-based Prestwick Library Screening Results, E. cloacae (fold increase in extracellular AK activity)
[9] = planktonic, cutoff for positive-scoring molecules 3-fold increase

With `CC(C)(C)C(=O)OCOC(=O)[C@@H]1N2C(=O)[C@@H](NC(=O)[C@H](N)c3ccccc3)[C@H]2SC1(C)C` [Pivampicillin] the fold induction at 50 µM (E. faecium; planktonic E. faecium, […], read-out: AK-based Prestwick library screening result, E. faecium (fold increase in extracellular AK activity)) was 1.1, the fold induction at 50 µM ([1]; planktonic S. aureus, […], read-out: AK-based Prestwick library screening result, S. aureus (fold increase in extracellular AK activity)) was 0.4 and the fold induction at 50 µM (K. pneumoniae; planktonic K. pneumoniae, […], read-out: AK-based Prestwick library screening result, K. pneumoniae (fold increase in extracellular AK activity)) was 0.9. For the same compound, the fold induction at 50 µM ([2]; planktonic A. baumannii, […], read-out: AK-based Prestwick library screening result, A. baumannii (fold increase in extracellular AK activity)) was 1.8, the fold induction at 50 µM (P. aeruginosa; planktonic P. aeruginosa, […], read-out: AK-based Prestwick library screening result, P. aeruginosa (fold increase in extracellular AK activity)) was 0.9 and the fold induction at 50 µM (E. cloacae; planktonic E. cloacae, […], read-out: AK-based Prestwick library screening result, E. cloacae (fold increase in extracellular AK activity)) was 1.2. It also gave a fold induction at 50 µM (E. coli; planktonic E. coli, 50 μM final drug concentration, […], read-out: AK-based Prestwick library screening result, E. coli (fold increase in extracellular AK activity)) of 1.5.
`CCOC(=O)[C@H](CCc1ccccc1)N[C@@H](C)C(=O)N1Cc2ccccc2C[C@H]1C(=O)O` [Quinapril HCl] was tested, and the fold induction at 50 µM (E. faecium; [3]) was 1.1, the fold induction at 50 µM [1, 4] was 1.2 and the fold induction at 50 µM (K. pneumoniae; [5]) was 1. The fold induction at 50 µM [2, 6] was 1.2, the fold induction at 50 µM (P. aeruginosa; [7]) was 1.2 and the fold induction at 50 µM (E. cloacae; [8]) was 1.6. It also gave a fold induction at 50 µM (E. coli; 50 μM final drug concentration, cutoff for positive-scoring molecules 3-fold increase, read-out: AK-based Prestwick Library Screening Results, E. coli (fold increase in extracellular AK activity)) of 1.2.
Work on `CN1Cc2c(N)cccc2C(c2ccccc2)C1` (centres unmarked) [Nomifensine maleate] yielded a fold induction at 50 µM (E. faecium; 384-well format, cutoff for positive-scoring molecules 3-fold increase, read-out: AK-based Prestwick Library Screening Results, E. faecium (increase in extracellular AK activity)) of 0.9, a fold induction at 50 µM ([1]; 384-well format, cutoff for positive-scoring molecules 3-fold increase, read-out: AK-based Prestwick Library Screening Results, S. aureus (increase in extracellular AK activity)) of 0.7 and a fold induction at 50 µM (K. pneumoniae; 384-well format, cutoff for positive-scoring molecules 3-fold increase, read-out: AK-based Prestwick Library Screening Results, K. pneumoniae (increase in extracellular AK activity)) of 0.8. The fold induction at 50 µM ([2]; 384-well format, cutoff for positive-scoring molecules 3-fold increase, read-out: AK-based Prestwick Library Screening Results, A. baumannii (increase in extracellular AK activity)) was 0.8, the fold induction at 50 µM (P. aeruginosa; 384-well format, cutoff for positive-scoring molecules 3-fold increase, read-out: AK-based Prestwick Library Screening Results, P. aeruginosa (increase in extracellular AK activity)) was 0.8 and the fold induction at 50 µM (E. cloacae; 384-well format, cutoff for positive-scoring molecules 3-fold increase, read-out: AK-based Prestwick Library Screening Results, E. cloacae (increase in extracellular AK activity)) was 1. The fold induction at 50 µM (E. coli; 50 μM final drug concentration, 384-well format, […], read-out: AK-based Prestwick Library Screening Results, E. coli (increase in extracellular AK activity)) was 0.9.
For `CC(COc1ccccc1)NC(C)C(O)c1ccc(O)cc1` (centres unmarked) [Isoxsuprine hydrochloride], the fold induction at 50 µM (E. faecium; planktonic E. faecium, 384-well, cutoff for positive-scoring molecules 3-fold increase, read-out: AK-based Prestwick Library Screening Results: E. faecium (increase in extracellular AK activity)) was 1, the fold induction at 50 µM ([1]; planktonic S. aureus, 384-well, cutoff for positive-scoring molecules 3-fold increase, read-out: AK-based Prestwick Library Screening Results: S. aureus (increase in extracellular AK activity)) was 1.1 and the fold induction at 50 µM (K. pneumoniae; planktonic K. pneumoniae, 384-well, cutoff for positive-scoring molecules 3-fold increase, read-out: AK-based Prestwick Library Screening Results: K. pneumoniae (increase in extracellular AK activity)) was 1. It also gave a fold induction at 50 µM ([2]; planktonic A. baumannii, 384-well, cutoff for positive-scoring molecules 3-fold increase, read-out: AK-based Prestwick Library Screening Results: A. baumannii (increase in extracellular AK activity)) of 1.5, a fold induction at 50 µM (P. aeruginosa; planktonic P. aeruginosa, 384-well, cutoff for positive-scoring molecules 3-fold increase, read-out: AK-based Prestwick Library Screening Results: P. aeruginosa (increase in extracellular AK activity)) of 1.1 and a fold induction at 50 µM (E. cloacae; planktonic E. cloacae, 384-well, cutoff for positive-scoring molecules 3-fold increase, read-out: AK-based Prestwick Library Screening Results: E. cloacae (increase in extracellular AK activity)) of 1.5. For the same compound, the fold induction at 50 µM (E. coli; planktonic E. coli, 50 μM final drug concentration, 384-well, cutoff for positive-scoring molecules 3-fold increase, read-out: AK-based Prestwick Library Screening Results: E. coli (increase in extracellular AK activity)) was 1.1.
`CCCC1C(=O)N2C(N(C)C)=Nc3ccc(C)cc3N2C1=O` (centres unmarked) [Azapropazone] showed a fold induction at 50 µM (E. faecium; planktonic E. faecium, positive cutoff 3-fold increase, read-out: AK-based Prestwick library screening result, E. faecium (fold increase in extracellular AK activity)) of 1, a fold induction at 50 µM ([1]; planktonic S. aureus, positive cutoff 3-fold increase, read-out: AK-based Prestwick library screening result, S. aureus (fold increase in extracellular AK activity)) of 0.8 and a fold induction at 50 µM (K. pneumoniae; planktonic K. pneumoniae, positive cutoff 3-fold increase, read-out: AK-based Prestwick library screening result, K. pneumoniae (fold increase in extracellular AK activity)) of 0.9. The fold induction at 50 µM ([2]; planktonic A. baumannii, positive cutoff 3-fold increase, read-out: AK-based Prestwick library screening result, A. baumannii (fold increase in extracellular AK activity)) was 0.9, the fold induction at 50 µM (P. aeruginosa; planktonic P. aeruginosa, positive cutoff 3-fold increase, read-out: AK-based Prestwick library screening result, P. aeruginosa (fold increase in extracellular AK activity)) was 1 and the fold induction at 50 µM (E. cloacae; planktonic E. cloacae, positive cutoff 3-fold increase, read-out: AK-based Prestwick library screening result, E. cloacae (fold increase in extracellular AK activity)) was 1.5. It also gave a fold induction at 50 µM (E. coli; planktonic E. coli, 50 μM final drug concentration, positive cutoff 3-fold increase, read-out: AK-based Prestwick library screening result, E. coli (fold increase in extracellular AK activity)) of 1.1.
`C[N+]1(C)C[C@H](O)C[C@H]1C(=O)[O-]` [Betonicine] showed a fold induction at 50 µM (E. faecium; planktonic, cutoff for positive-scoring molecules 3-fold increase, read-out: AK-based Prestwick Library Screening Results, E. faecium (fold increase in extracellular AK activity)) of 0.9, a fold induction at 50 µM ([1]; planktonic, cutoff for positive-scoring molecules 3-fold increase, read-out: AK-based Prestwick Library Screening Results, S. aureus (fold increase in extracellular AK activity)) of 0.4 and a fold induction at 50 µM (K. pneumoniae; planktonic, cutoff for positive-scoring molecules 3-fold increase, read-out: AK-based Prestwick Library Screening Results, K. pneumoniae (fold increase in extracellular AK activity)) of 0.6. For the same compound, the fold induction at 50 µM ([2]; planktonic, cutoff for positive-scoring molecules 3-fold increase, read-out: AK-based Prestwick Library Screening Results, A. baumannii (fold increase in extracellular AK activity)) was 0.4, the fold induction at 50 µM (P. aeruginosa; planktonic, cutoff for positive-scoring molecules 3-fold increase, read-out: AK-based Prestwick Library Screening Results, P. aeruginosa (fold increase in extracellular AK activity)) was 0.4 and the fold induction at 50 µM (E. cloacae; planktonic, cutoff for positive-scoring molecules 3-fold increase, read-out: AK-based Prestwick Library Screening Results, E. cloacae (fold increase in extracellular AK activity)) was 0.4. It also gave a fold induction at 50 µM (E. coli; 50 μM final drug concentration, planktonic, cutoff for positive-scoring molecules 3-fold increase, read-out: AK-based Prestwick Library Screening Results, E. coli (fold increase in extracellular AK activity)) of 0.4.
In the case of `N[C@@H](Cc1cc(I)c(Oc2ccc(O)c(I)c2)c(I)c1)C(=O)O` [Liothyronine], the fold induction at 50 µM (E. faecium; [3]) was 1.1, the fold induction at 50 µM [1, 4] was 1 and the fold induction at 50 µM (K. pneumoniae; [5]) was 0.9. For the same compound, the fold induction at 50 µM [2, 6] was 1.1, the fold induction at 50 µM (P. aeruginosa; [7]) was 1.1 and the fold induction at 50 µM (E. cloacae; [8]) was 1.6. It also gave a fold induction at 50 µM (E. coli; read-out: AK-based Prestwick Library Screening Results, E. coli (fold increase in extracellular AK activity)) of 1.2.
With `O=C1NCN(c2ccccc2)C12CCN(CCCC(c1ccc(F)cc1)c1ccc(F)cc1)CC2` [Fluspirilen] the “AK-based Prestwick Library Screening Results, E. faecium (fold increase in extracellular AK activity)” value (E. faecium; [9]) was 1.3, the “AK-based Prestwick Library Screening Results, S. aureus (fold increase in extracellular AK activity)” value [1, 9] was 1.4 and the “AK-based Prestwick Library Screening Results, K. pneumoniae (fold increase in extracellular AK activity)” value (K. pneumoniae; [9]) was 1.1. The “AK-based Prestwick Library Screening Results, A. baumannii (fold increase in extracellular AK activity)” value [2, 9] was 6.6, the “AK-based Prestwick Library Screening Results, P. aeruginosa (fold increase in extracellular AK activity)” value (P. aeruginosa; [9]) was 0.8 and the “AK-based Prestwick Library Screening Results, E. cloacae (fold increase in extracellular AK activity)” value (E. cloacae; [9]) was 1.0. The “AK-based Prestwick Library Screening Results, E. coli (fold increase in extracellular AK activity)” value (E. coli; 50 μM final drug concentration, planktonic, cutoff for positive-scoring molecules 3-fold increase) was 1.3.

Source: US10004701B2, “Methods and compositions for treating infection” (UNIVERSITY OF ROCHESTER, priority 2012, dated 2018)
